Data on 15 compounds can be found in patent US8338422B2, “Indolin-2-ones and aza-indolin-2-ones” (Janssen Pharmaceutica NV, priority 2007, dated 2012).

The target of one assay is GSK3β (h) (Homo sapiens, UniProt P49841). Nature of the assay: GSK-3β human kinase assay (SPA). In kind it is biochemical. The settings on record: read-out: GSK3B pIC50 (converted). A digest of the protocol: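 Radiometric SPA read-out: after EDTA stop, biotinylated 33P-labelled peptide bound streptavidin PVT beads and was imaged on Leadseeker. Reaction: 60 min, room temperature, GSK3β (h) at 1 μg/ml, 1 μM substrate peptide, 1 μM ATP with 2 nM [γ-33P]ATP, Tris pH 7.4/MgCl2/DTT buffer.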
Chain of GSK3β (h) (P49841 whole entry): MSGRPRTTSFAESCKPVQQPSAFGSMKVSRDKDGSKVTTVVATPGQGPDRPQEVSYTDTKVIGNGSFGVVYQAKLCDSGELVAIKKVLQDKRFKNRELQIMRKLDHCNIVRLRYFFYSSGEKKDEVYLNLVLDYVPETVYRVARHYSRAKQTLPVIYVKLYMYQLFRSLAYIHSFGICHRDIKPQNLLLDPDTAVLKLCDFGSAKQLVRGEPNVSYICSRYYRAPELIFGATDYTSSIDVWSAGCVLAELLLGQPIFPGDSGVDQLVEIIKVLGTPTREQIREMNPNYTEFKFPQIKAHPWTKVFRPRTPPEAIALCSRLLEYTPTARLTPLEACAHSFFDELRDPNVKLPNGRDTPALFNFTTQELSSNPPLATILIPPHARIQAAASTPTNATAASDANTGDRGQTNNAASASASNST

Another assay concerns A2780. In words: Cellular proliferation assay (Alamar blue), A2780. Type of assay: cell-based. The settings on record: Homo sapiens, A2780, 72 h, A2780 cells, 72 hours with compound, 10% FCS, read-out: pIC50 A2780 (converted). Summed up:
(§1)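 Proliferation was assessed over 72 h of compound treatment, following 24 h of seeding without compound, under 10% FCS, 37° C. and 5% CO2. Fluorescent resazurin product was measured and compared with control cells.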

For another assay, the system named is PC-3. In words: Cellular proliferation assay (Alamar blue), PC-3. Type of assay: cell-based. The settings on record: Homo sapiens, PC-3, 72 h, PC-3 cells, 72 hours with compound, 10% FCS, read-out: pIC50 PC-3 (converted). Summed up:
as §1
On the technique in general: Resazurin is reduced to fluorescent resorufin, in cell work by metabolically active cells.

The subject of another assay is MDA/MB231. In words: Cellular proliferation assay (Alamar blue), MDA/MB231. In kind it is cell-based. The settings on record: Homo sapiens, MDA-MB-231, 72 h, MDA/MB231 cells, 72 hours with compound, 10% FCS, read-out: pIC50 MDA/MB231 (converted). A digest of the protocol: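 Cells in 10% FCS were seeded and left 24 h without compound, then treated for 72 h at 37° C. Viability read with Alamar blue (resazurin 9 μg/ml, ferro-/ferricyanide 90 μM each), incubated 4 h for H460 and 24 h for MDA-MB-231; fluorescence 544/590 nm, effect relative to control cells.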

Another assay has as its system U87MG. In words: Cellular proliferation assay (Alamar blue), U87MG. Type of assay: cell-based. The settings on record: Homo sapiens, U-87 MG, 72 h, U87MG cells, 72 hours with compound, 10% FCS, read-out: pIC50 U87MG (converted). Summed up: as §1
In a further assay the test system is H1299. Nature of the assay: Cellular proliferation assay (Alamar blue), H1299. The settings on record: Homo sapiens, NCI-H1299, 72 h, H1299 cells, 72 hours with compound, 10% FCS, read-out: pIC50 H1299 (converted). In kind it is cell-based. A digest of the protocol: as §1
The target of another assay is CDK1/CyclinB (h) (Homo sapiens, UniProt P06493). In words: CDK1/CyclinB human kinase assay (FRET). In kind it is biochemical. The settings on record: read-out: CDK1 pIC50 (converted). A digest of the protocol:
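Kinase activity was read as the 460/538 nm emission ratio after protease cleavage of unphosphorylated peptide (60 min development). The reaction ran 60 min at room temperature with 10 μM ATP, 2 μM Ser/Thr peptide 12 and 0.2 μg/ml enzyme in Hepes pH 7.5 buffer with MgCl2, EGTA, Brij-35.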

For the next assay, the target named is AuroraB (h) (Homo sapiens, UniProt Q96GD4). In words: Aurora-B human kinase assay (SPA). In kind it is biochemical. The settings on record: read-out: AuroraB pIC50 (converted). A digest of the protocol: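 33P-phosphorylated biotin-substrate captured on streptavidin PVT SPA beads after EDTA-containing stop and imaged on Leadseeker. Reaction: 60 min at room temperature, Hepes pH 7.5 with Mg2+/Mn2+. Conditions: 0.5 μM ATP plus 2.2 nM [γ-33P]ATP, 3 μM substrate, 0.5 μg/ml human AuroraB.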
Chain of AuroraB (h) (Q96GD4 whole entry): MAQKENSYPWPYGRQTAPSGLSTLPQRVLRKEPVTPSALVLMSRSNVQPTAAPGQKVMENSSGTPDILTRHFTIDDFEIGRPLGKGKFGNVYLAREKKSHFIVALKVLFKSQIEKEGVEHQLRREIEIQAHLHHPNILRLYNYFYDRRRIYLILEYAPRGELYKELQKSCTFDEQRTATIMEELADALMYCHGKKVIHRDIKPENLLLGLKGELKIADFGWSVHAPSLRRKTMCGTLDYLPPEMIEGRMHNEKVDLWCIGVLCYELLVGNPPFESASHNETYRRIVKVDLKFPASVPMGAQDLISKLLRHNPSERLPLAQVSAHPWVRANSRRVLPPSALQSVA

Another assay concerns the target PLK4 (h) (Homo sapiens, UniProt O00444). Nature of the assay: PLK-4 human kinase assay (SPA). The settings on record: read-out: PLK4 pIC50 (converted). In kind it is biochemical. Summed up: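 Radiometric readout: 33P-labelled peptide captured on streptavidin SPA beads after EDTA stop, imaged by Leadseeker. Reaction ran 60 min at room temperature in Hepes pH 8.0 buffer. It contained 1 μM ATP with 2 nM [γ-33P]ATP, 10 μM biotinylated peptide and PLK4 (h) at 19 μg/ml.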

Another assay deals with HCT-116. In words: Cellular proliferation assay (Alamar blue), HCT-116. Type of assay: cell-based. The settings on record: Homo sapiens, HCT-116, 72 h, HCT-116 cells, 72 hours with compound, 10% FCS, read-out: pIC50 HCT-116 (converted). A digest of the protocol:
as §1

Bounds are passed on as bounds.

Chain of CDK1/CyclinB (h) (P06493 whole entry): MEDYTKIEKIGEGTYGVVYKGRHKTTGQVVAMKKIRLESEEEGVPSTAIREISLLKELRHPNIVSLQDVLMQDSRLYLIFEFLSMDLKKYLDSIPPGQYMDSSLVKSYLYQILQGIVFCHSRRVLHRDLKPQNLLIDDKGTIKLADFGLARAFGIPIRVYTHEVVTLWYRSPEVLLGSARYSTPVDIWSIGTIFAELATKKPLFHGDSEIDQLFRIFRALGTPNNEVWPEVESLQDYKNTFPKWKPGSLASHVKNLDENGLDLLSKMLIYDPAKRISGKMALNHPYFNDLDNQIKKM
Chain of CDK1/CyclinB (h) (P14635 whole entry partner): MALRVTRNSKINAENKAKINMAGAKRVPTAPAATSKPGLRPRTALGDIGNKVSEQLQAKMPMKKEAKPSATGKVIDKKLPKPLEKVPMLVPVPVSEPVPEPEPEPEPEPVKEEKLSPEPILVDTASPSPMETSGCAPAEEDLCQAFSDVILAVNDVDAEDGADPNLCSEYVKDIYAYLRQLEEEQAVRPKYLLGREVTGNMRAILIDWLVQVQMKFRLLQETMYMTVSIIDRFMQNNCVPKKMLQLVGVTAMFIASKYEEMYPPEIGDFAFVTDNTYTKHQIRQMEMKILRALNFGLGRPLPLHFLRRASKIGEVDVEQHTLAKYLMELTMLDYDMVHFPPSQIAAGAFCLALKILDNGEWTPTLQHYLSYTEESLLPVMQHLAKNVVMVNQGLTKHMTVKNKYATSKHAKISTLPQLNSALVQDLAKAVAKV
Chain of PLK4 (h) (O00444 whole entry): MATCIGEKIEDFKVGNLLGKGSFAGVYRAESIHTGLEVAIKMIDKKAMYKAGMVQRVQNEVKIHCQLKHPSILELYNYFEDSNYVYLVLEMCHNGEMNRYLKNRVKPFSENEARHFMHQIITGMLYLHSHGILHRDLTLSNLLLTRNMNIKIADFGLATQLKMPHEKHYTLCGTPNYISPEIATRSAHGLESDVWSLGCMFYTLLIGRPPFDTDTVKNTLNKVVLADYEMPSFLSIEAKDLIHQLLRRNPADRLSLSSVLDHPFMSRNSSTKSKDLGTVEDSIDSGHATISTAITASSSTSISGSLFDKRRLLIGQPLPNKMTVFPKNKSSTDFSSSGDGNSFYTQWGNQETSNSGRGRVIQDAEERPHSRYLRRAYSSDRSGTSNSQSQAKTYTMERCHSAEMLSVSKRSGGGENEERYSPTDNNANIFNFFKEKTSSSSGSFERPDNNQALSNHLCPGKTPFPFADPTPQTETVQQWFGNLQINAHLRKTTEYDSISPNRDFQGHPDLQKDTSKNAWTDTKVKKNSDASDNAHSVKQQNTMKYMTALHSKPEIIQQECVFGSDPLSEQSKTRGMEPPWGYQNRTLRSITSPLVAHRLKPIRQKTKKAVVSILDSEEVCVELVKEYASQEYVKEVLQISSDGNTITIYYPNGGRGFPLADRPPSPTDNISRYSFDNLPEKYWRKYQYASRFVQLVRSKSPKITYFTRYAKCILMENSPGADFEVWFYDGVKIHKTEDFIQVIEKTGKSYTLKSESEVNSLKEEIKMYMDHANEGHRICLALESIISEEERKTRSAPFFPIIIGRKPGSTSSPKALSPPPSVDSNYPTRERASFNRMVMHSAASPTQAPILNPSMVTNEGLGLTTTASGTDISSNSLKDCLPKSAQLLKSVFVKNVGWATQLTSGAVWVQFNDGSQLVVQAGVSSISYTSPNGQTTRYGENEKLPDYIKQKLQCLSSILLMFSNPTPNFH

On to `CN1CCCCCCC(=O)NCCN(C)c2ncnc3c2/C(=C/Nc2cccc(c2)C1)C(=O)N3` [Compound 54], for which the IC50 at GSK3β (h), in the assay with A2780, in the assay on PC-3, in the assay with MDA/MB231, in the assay with U87MG and in the assay with H1299 was above 10 µM in each case. The IC50 at CDK1/CyclinB (h), on AuroraB (h), at PLK4 (h) and in the assay with HCT-116 was above 10 µM in each case.
As for `CN1CCNC(=O)CCCOc2cc(ccc2Cl)N/C=C2\C(=O)Nc3ncnc1c32` [Compound 55], the IC50 at GSK3β (h), with A2780, in the assay on PC-3, in the assay with MDA/MB231, in the assay with U87MG and in the assay on H1299 was above 10 µM in each case. Besides, the IC50 on CDK1/CyclinB (h), on AuroraB (h), at PLK4 (h) and with HCT-116 was above 10 µM in each case.
Take `COc1cc2cc(c1OC)OCCCC(=O)N(C)CCCNc1ncnc3c1/C(=C/N2)C(=O)N3` [Compound 112]: the IC50 is 0.115 µM at GSK3β (h); above 10 µM with A2780; above 10 µM in the assay on PC-3; above 10 µM in the assay with MDA/MB231; 5.25 µM with U87MG; 0.562 µM in the assay with H1299. Besides, the IC50 at CDK1/CyclinB (h) is 0.0479 µM; on AuroraB (h), 0.191 µM; on PLK4 (h), 0.105 µM; with HCT-116 it was 0.55 µM.
As to `COc1cc2cc(c1OC)CN(C)CC(=O)N(C)CCCNc1ncnc3c1/C(=C/N2)C(=O)N3` [Compound 125], the IC50 on GSK3β (h) was 9.77 µM; in the assay on A2780 it was above 10 µM; in the assay on PC-3, above 10 µM; in the assay with MDA/MB231, above 10 µM; in the assay with U87MG, above 10 µM; in the assay on H1299 it was above 10 µM. Also, the IC50 on CDK1/CyclinB (h), at AuroraB (h), at PLK4 (h) and with HCT-116 was above 10 µM in each case.
For `CN1CCN(c2ccc3cc2CN(C)CCCCCC(=O)N(C)CCNc2ncnc4c2/C(=C/N3)C(=O)N4)CC1` [Compound 126], the IC50 at GSK3β (h) was 3.89 µM; in the assay with A2780, above 10 µM; with PC-3, above 10 µM; in the assay on MDA/MB231 it was above 10 µM; with U87MG, 6.31 µM; in the assay with H1299, above 10 µM. The IC50 is above 10 µM at CDK1/CyclinB (h), above 10 µM on AuroraB (h), 0.676 µM at PLK4 (h) and above 10 µM in the assay with HCT-116.
`CN1CCCNc2ncnc3c2/C(=C/Nc2cc(cc(C(F)(F)F)c2)OCCCCC1=O)C(=O)N3` [Compound 130]: the IC50 was above 10 µM at GSK3β (h); above 10 µM in the assay on A2780; 8.13 µM with PC-3; above 10 µM in the assay on MDA/MB231; 6.31 µM in the assay with U87MG; 8.91 µM in the assay with H1299. The IC50 at CDK1/CyclinB (h) is above 10 µM; on AuroraB (h), 0.309 µM; at PLK4 (h), 4.9 µM; in the assay with HCT-116, 4.9 µM.
As for `COc1cc2cc(c1OC)OCCCC(=O)N(C)CCNc1ncnc3c1/C(=C/N2)C(=O)N3` [Compound 132], the IC50 at GSK3β (h), with A2780, in the assay with PC-3, in the assay with MDA/MB231, in the assay on U87MG and with H1299 was above 10 µM each time. Further, the IC50 is above 10 µM on CDK1/CyclinB (h), above 10 µM on AuroraB (h), 0.417 µM at PLK4 (h) and 0.912 µM with HCT-116.
`CN1CCCCNc2ncnc3c2/C(=C/Nc2cccc(c2)OCC1=O)C(=O)N3` [Compound 143]: the IC50 at GSK3β (h) is 0.363 µM; in the assay on A2780, above 10 µM; in the assay on PC-3 it was above 10 µM; in the assay with MDA/MB231 it was above 10 µM; with U87MG, above 10 µM; with H1299, above 10 µM. Also, the IC50 is above 10 µM on CDK1/CyclinB (h), 2.34 µM at AuroraB (h), 3.16 µM on PLK4 (h) and above 10 µM in the assay with HCT-116.
Turning to `CN1CCNc2ncnc3c2/C(=C/Nc2cccc(c2)OCC(=O)N(C)CC1)C(=O)N3` [Compound 148], the IC50 at GSK3β (h) is 1 µM; in the assay on A2780 it was above 10 µM; in the assay on PC-3, above 10 µM; with MDA/MB231, above 10 µM; in the assay on U87MG, above 10 µM; in the assay with H1299, above 10 µM. The IC50 is above 10 µM on CDK1/CyclinB (h), 4.47 µM at AuroraB (h), 1.82 µM on PLK4 (h) and above 10 µM in the assay on HCT-116.
With `CN1CCNc2ncnc3c2/C(=C/Nc2cccc(c2)CN(C)CC(=O)N(C)CC1)C(=O)N3` [Compound 149], the IC50 is 0.302 µM on GSK3β (h); above 10 µM in the assay on A2780; above 10 µM with PC-3; above 10 µM in the assay on MDA/MB231; above 10 µM in the assay on U87MG; above 10 µM in the assay on H1299. In addition, the IC50 is above 10 µM on CDK1/CyclinB (h), above 10 µM at AuroraB (h), 5.01 µM at PLK4 (h) and above 10 µM in the assay with HCT-116.
`COc1ccc2cc1OCC(=O)N(C)CCCCNc1ncnc3c1/C(=C/N2)C(=O)N3` [Compound 151]: the IC50 on GSK3β (h) is 0.933 µM; in the assay with A2780 it was above 10 µM; in the assay with PC-3, above 10 µM; in the assay with MDA/MB231, above 10 µM; in the assay with U87MG, above 10 µM; in the assay on H1299, above 10 µM. The IC50 on CDK1/CyclinB (h) is above 10 µM; at AuroraB (h), 2.88 µM; on PLK4 (h), 3.47 µM; with HCT-116, above 10 µM.
As to `COc1cc2cc(c1OC)CN(C)CC(=O)N(C)CCCCNc1ncnc3c1/C(=C/N2)C(=O)N3` [Compound 152], the IC50 on GSK3β (h), in the assay on A2780, in the assay on PC-3, with MDA/MB231, with U87MG and with H1299 was above 10 µM each time. The IC50 at CDK1/CyclinB (h) is above 10 µM; at AuroraB (h) it was above 10 µM; at PLK4 (h), 5.01 µM; in the assay on HCT-116 it was above 10 µM.
For the compound `COc1ccc2cc1CN(C)CC(=O)N(C)CCCCNc1ncnc3c1/C(=C/N2)C(=O)N3` [Compound 153], the IC50 at GSK3β (h) is 1.62 µM; in the assay on A2780, above 10 µM; in the assay on PC-3, above 10 µM; with MDA/MB231 it was above 10 µM; in the assay with U87MG, above 10 µM; in the assay with H1299, above 10 µM. In addition, the IC50 is above 10 µM on CDK1/CyclinB (h), above 10 µM at AuroraB (h), 2.57 µM on PLK4 (h) and above 10 µM in the assay on HCT-116.
On to `CN1CC(=O)N(C)CCCCNc2ncnc3c2/C(=C/Nc2cccc(c2)C1)C(=O)N3` [Compound 154], for which the IC50 on GSK3β (h) was 0.661 µM; in the assay on A2780 it was above 10 µM; in the assay with PC-3, above 10 µM; in the assay on MDA/MB231, above 10 µM; in the assay on U87MG, above 10 µM; with H1299 it was above 10 µM. Moreover, the IC50 on CDK1/CyclinB (h) is above 10 µM; at AuroraB (h), above 10 µM; on PLK4 (h), 2.82 µM; in the assay with HCT-116, above 10 µM.
Consider `COc1cc2cc(c1OC)CN(C)CC(=O)N(C)CCN(C)CCNc1ncnc3c1/C(=C/N2)C(=O)N3` [Compound 155], for which the IC50 is 6.03 µM at GSK3β (h); above 10 µM in the assay with A2780; above 10 µM in the assay on PC-3; above 10 µM with MDA/MB231; above 10 µM in the assay on U87MG; above 10 µM with H1299. The IC50 was above 10 µM at CDK1/CyclinB (h), above 10 µM on AuroraB (h), 8.71 µM at PLK4 (h) and above 10 µM with HCT-116.
